# Measured values published in ChEMBL document CHEMBL5120900, “Structure-Based Discovery of a Series of NSD2-PWWP1 Inhibitors” (J Med Chem, 2022).
# Target: T1, Histone-lysine N-methyltransferase NSD3 (Homo sapiens, UniProt Q9BZ95)
# T1 sequence (Q9BZ95 whole entry): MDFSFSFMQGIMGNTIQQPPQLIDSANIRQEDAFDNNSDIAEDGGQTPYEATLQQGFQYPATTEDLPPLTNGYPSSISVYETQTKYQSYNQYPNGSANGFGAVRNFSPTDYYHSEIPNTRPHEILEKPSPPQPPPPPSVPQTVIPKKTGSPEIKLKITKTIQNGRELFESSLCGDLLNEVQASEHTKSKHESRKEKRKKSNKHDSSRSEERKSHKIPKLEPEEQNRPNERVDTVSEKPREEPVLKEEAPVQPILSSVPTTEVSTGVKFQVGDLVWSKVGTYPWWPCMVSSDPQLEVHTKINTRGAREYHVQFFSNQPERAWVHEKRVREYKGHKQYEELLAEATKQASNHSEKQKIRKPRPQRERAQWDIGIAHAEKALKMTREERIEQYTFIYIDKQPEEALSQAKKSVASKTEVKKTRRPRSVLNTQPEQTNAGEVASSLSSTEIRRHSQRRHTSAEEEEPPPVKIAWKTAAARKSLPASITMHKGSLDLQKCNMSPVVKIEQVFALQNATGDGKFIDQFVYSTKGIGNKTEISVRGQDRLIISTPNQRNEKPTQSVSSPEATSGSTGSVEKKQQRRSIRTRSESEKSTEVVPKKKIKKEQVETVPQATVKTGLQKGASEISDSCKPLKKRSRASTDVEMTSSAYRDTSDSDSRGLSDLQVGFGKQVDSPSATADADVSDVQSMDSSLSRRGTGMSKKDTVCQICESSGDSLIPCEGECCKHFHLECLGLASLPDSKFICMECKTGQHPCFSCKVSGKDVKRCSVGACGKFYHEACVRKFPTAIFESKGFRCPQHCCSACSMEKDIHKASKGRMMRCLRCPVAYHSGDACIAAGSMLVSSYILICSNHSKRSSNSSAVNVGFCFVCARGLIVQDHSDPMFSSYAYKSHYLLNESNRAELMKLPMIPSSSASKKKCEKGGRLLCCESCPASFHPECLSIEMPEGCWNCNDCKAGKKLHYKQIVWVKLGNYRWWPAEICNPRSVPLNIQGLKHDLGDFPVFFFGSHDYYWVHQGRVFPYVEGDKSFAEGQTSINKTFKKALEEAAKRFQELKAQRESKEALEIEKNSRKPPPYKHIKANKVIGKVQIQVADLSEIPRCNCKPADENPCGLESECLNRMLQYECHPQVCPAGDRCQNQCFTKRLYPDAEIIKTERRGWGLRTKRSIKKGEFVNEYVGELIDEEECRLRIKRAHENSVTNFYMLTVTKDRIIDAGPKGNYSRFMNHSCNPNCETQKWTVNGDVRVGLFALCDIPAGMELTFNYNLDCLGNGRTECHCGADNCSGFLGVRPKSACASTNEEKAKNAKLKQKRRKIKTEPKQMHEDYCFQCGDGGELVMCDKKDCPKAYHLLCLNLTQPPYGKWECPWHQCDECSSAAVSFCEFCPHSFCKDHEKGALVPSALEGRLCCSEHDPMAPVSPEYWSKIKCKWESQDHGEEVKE
# Test: Binding affinity to NSD3 (unknown origin) assessed as dissociation constant
row,Kd,SMILES
1,0.091 µM,N#Cc1ccc(C(=O)N(Cc2cccs2)C2CC2)cc1

# Target: T2, Histone-lysine N-methyltransferase NSD2 (Homo sapiens, UniProt O96028)
# T2 sequence (O96028 whole entry): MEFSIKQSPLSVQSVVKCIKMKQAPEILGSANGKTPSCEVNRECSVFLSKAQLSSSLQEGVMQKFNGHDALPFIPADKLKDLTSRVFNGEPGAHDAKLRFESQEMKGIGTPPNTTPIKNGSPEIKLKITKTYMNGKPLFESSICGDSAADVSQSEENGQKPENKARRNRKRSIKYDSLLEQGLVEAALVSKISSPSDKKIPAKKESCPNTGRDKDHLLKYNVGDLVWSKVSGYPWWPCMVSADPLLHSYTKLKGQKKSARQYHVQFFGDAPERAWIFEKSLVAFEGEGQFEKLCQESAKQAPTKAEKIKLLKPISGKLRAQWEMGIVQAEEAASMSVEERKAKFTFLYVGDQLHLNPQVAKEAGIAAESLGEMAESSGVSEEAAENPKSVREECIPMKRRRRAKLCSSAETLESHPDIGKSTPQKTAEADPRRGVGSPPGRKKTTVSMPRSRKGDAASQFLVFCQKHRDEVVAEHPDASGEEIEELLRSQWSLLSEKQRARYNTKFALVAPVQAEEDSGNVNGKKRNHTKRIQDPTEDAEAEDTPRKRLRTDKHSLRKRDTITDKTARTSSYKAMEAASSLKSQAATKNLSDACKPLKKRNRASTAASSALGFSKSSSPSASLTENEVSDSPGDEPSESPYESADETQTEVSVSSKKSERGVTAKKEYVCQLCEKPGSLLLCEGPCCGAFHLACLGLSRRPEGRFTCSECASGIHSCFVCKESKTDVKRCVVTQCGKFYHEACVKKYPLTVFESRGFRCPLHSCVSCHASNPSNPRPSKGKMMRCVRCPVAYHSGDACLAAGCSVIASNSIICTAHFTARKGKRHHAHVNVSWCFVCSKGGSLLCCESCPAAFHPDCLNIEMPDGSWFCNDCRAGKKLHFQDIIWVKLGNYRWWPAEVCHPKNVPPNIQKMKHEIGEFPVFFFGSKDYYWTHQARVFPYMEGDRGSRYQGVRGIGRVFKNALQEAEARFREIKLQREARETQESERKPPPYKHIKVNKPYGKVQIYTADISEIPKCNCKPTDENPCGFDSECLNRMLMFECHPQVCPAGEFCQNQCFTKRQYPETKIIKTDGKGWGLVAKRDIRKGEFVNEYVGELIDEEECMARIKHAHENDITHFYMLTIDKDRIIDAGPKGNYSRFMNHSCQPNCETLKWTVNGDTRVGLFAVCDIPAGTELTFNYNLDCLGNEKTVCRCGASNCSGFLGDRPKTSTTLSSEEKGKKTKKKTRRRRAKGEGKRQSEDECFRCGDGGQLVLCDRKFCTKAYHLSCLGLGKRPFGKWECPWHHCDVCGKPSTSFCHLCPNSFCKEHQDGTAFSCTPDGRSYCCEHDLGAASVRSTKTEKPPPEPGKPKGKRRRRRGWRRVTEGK
# Test: Binding affinity to N-terminal His6/Sumo-tagged NSD2 PWWP1 domain (211 to 350 residues) (unknown origin) expressed in Escherichia coli BL21 (DE3) using ATKAARKSAPATGGV-Lys (me)2-KPHRYRPG polypeptide as substrate incubated for 3 hrs by HTRF assay
row,SMILES,IC50
1,Cc1cc(CN)cc(C)c1-c1ncn(C)c1-c1ccc(C#N)c(Cl)c1,5.03 µM
2,Cc1cc(CN2CCCC2)cc(C)c1-c1ncn(C)c1-c1ccc(C#N)c2ccccc12,2.07 µM
3,CCNCc1cc(C)c(-c2ncn(C)c2-c2ccc(C#N)c3ccccc23)c(C)c1,0.7 µM
4,Cn1cnc(-c2ccc(CN)cc2C(F)(F)F)c1-c1ccc(C#N)cc1,6.01 µM
5,Cc1cc(CN2CCC(N(C)C)C2)cc(C)c1-c1ncn(C)c1-c1ccc(C#N)c2ccccc12 (configuration not stated),2 µM
6,Cc1cc(CN2CCNCC2)cc(C)c1-c1ncn(C)c1-c1ccc(C#N)c2ccccc12,1.89 µM
7,Cc1cc(CNC(C)(C)C)cc(C)c1-c1ncn(C)c1-c1ccc(C#N)c2ccccc12,0.64 µM
8,Cn1cnc(-c2ccc(CN)cc2Cl)c1-c1ccc(C#N)cc1,6.11 µM
9,Cc1cc(CNC2CC2)cc(C)c1-c1ncn(C)c1-c1ccc(C#N)c2ccccc12,0.43 µM
10,Cn1cnc(-c2ccc(CN)cc2F)c1-c1ccc(C#N)cc1,11.2 µM
11,Cc1cc(CN)ccc1-c1ncn(C)c1-c1ccc(C#N)cc1,4.68 µM
12,CCC(=O)c1cc(C)c(-c2ncn(C)c2-c2ccc(C#N)c3ccccc23)c(C)c1,> 22 µM
13,Cc1cc(NC(=O)OC(C)(C)C)cc(C)c1-c1ncn(C)c1-c1ccc(C#N)c2ccccc12,> 25 µM
14,Cc1cc(C#N)cc(C)c1-c1ncn(C)c1-c1ccc(C#N)c2ccccc12,> 20 µM
15,Cc1cc(CN)cc(C)c1-c1ncn(C)c1-c1ccc(C#N)cc1,0.57 µM
16,Cc1cc(C=O)cc(C)c1-c1ncn(C)c1-c1ccc(C#N)c2ccccc12,> 21 µM
17,Cc1cc(N)cc(C)c1-c1ncn(C)c1-c1ccc(C#N)c2ccccc12,10.6 µM
18,Cc1cc(CN2CCC(O)C2)cc(C)c1-c1ncn(C)c1-c1ccc(C#N)c2ccccc12 (configuration not stated),0.52 µM
19,Cc1cc(CN2CCOCC2)cc(C)c1-c1ncn(C)c1-c1ccc(C#N)c2ccccc12,3.84 µM
20,Cc1cc(CNCCN)cc(C)c1-c1ncn(C)c1-c1ccc(C#N)c2ccccc12,0.62 µM
21,Cc1cc(CN)cc(C)c1-c1ncn(C)c1-c1ccc(C#N)c(N)c1,8.78 µM
22,COc1cc(CN)cc(OC)c1-c1ncn(C)c1-c1ccc(C#N)cc1,4.44 µM
23,CCC(O)c1cc(C)c(-c2ncn(C)c2-c2ccc(C#N)c3ccccc23)c(C)c1 (configuration not stated),> 24 µM

# The remaining lines, values ahead:
row,IC50,SMILES
1,8.05 µM,Cc1cc(CN2CCC(NC(=O)OC(C)(C)C)CC2)cc(C)c1-c1ncn(C)c1-c1ccc(C#N)c2ccccc12
2,1.49 µM,Cc1cc(CN2CCCCC2)cc(C)c1-c1ncn(C)c1-c1ccc(C#N)c2ccccc12
3,12 µM,COc1cc(CN)ccc1-c1ncn(C)c1-c1ccc(C#N)cc1
4,> 20 µM,CNc1cc(-c2c(-c3c(C)cc(CN)cc3C)ncn2C)ccc1C#N
5,8.07 µM,Cc1cc(CN2CCN(C(=O)OC(C)(C)C)CC2)cc(C)c1-c1ncn(C)c1-c1ccc(C#N)c2ccccc12
6,10.9 µM,COc1cc(-c2c(-c3c(C)cc(CN)cc3C)ncn2C)ccc1C#N
7,2.91 µM,Cc1cc(CN)cc(C)c1-c1ncn(C)c1-c1ccc(C#N)c(F)c1
8,13.9 µM,Cn1cnc(-c2ccc(CN)cc2)c1-c1ccc(C#N)cc1
9,1.58 µM,Cc1cc(CN)cc(C)c1-c1ncn(C)c1-c1ccc(C#N)c2ncccc12
10,1.67 µM,Cc1cc(CNC(=O)OC(C)(C)C)cc(C)c1-c1ncn(C)c1-c1ccc(C#N)c2ccccc12
11,15.4 µM,Cc1cc(CN)cc(C)c1-c1ncn(C)c1-c1ccc(C#N)c(C(F)(F)F)c1
12,13.8 µM,Cc1cc(CO)cc(C)c1-c1ncn(C)c1-c1ccc(C#N)c2ccccc12
13,0.52 µM,Cc1cc(CN)cc(C)c1-c1ncn(C)c1-c1ccc(C#N)c2ccccc12
